Holding throughout (assay): NCI tumour cell line growth inhibition, 48 h
Experiment [1] deals with K-562 leukemia.
For experiment [2], the system named is LOX IMVI melanoma.
The subject of experiment [3] is UO-31 renal.
The test system of experiment [4] is COLO 205 colon.
Experiment [5] deals with U251 CNS.
The test system of experiment [6] is SR leukemia.
Experiment [7] concerns HCT-15 colon.
For experiment [8], the system named is 786-0 renal.
Experiment [9] has as its system SF-295 CNS.
Experiment [10] deals with MDA-MB-435.

Values joined by “and” are separate entries in the source; they are usually repeats but may differ in a detail not shown here. Equal values may be shown once.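 Values below derive from 48-hour exposures of cells grown in 96-well plates, with endpoints linearly interpolated between the two concentrations bracketing the appropriate inhibition level. The concentration for 50% growth inhibition is given as GI50. The concentration for full growth arrest is given as TGI.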

In the case of `NC(=O)CC1OC(=O)Cc2cc3c(c(O)c21)C(=O)c1c(O)cccc1C3=O` (stereo not drawn), the TGI in [1], in experiment [2], in [3], in experiment [4], in experiment [5] and in experiment [6] was above 100 µM each time. Besides, the TGI in [7], in experiment [8], in [9] and in experiment [10] was above 100 µM each time.

Take `O=C1Nc2c(Cl)cc(Cl)cc2/C1=N/N=C/c1ccco1`: the TGI in [1] is above 100 µM; in experiment [2] it was 35 µM; in experiment [3], 55.4 µM; in experiment [4] it was 73.3 µM; in experiment [5] it was above 100 µM; in experiment [6], above 100 µM. The TGI in [7], in experiment [8], in experiment [9] and in [10] was above 100 µM throughout.

As for `CCOC(=O)c1ccc(-n2cnc(-c3ccc([N+](=O)[O-])cc3)c2)cc1`, the TGI in experiment [1], in experiment [2], in experiment [3], in experiment [4], in [5] and in experiment [6] was above 100 µM in each case. Also, the TGI in experiment [7], in [8], in experiment [9] and in [10] was above 100 µM throughout.

On to `COc1cc(-n2ccnc2-c2ccc3ccccc3c2)cc(OC)c1OC`, for which the GI50 in experiment [1] is below 0.0191 µM; in experiment [2], 1.08 µM; in experiment [3] it was 0.28 µM; in [4], below 0.0282 µM; in experiment [5], 0.0907 µM; in experiment [6], below 0.0188 µM. Also, the values for the GI50 in [7], in experiment [8] and in experiment [9] were 0.0509 µM, 0.161 µM and 0.0363 µM, respectively. The TGI in experiment [1] was above 100 µM; in [2], above 47.6 µM; in [3], 35 µM; in experiment [4], 0.785 µM; in [5], 21.5 µM; in experiment [6], above 43.4 µM. In addition, the TGI in experiment [7] is above 48.6 µM; in experiment [8], 19 µM; in experiment [9], 42.5 µM; in experiment [10], 0.124 µM.

Turning to `O=C(O)Cc1cccc2c(=O)cc(-c3ccccc3)oc12`, the GI50 in experiment [1] is 148 µM; in experiment [2] it was 280 µM; in [3], 25.5 µM; in [4], 636 µM; in experiment [5], 360 µM; in [7], 343 µM. The GI50 in experiment [8] is above 250 µM; in [9], 400 µM; in experiment [10] it was 518 µM. For the same compound, the TGI in experiment [1] is 250 µM and > 844 µM; in [2] it was 250 µM and > 909 µM; in experiment [3] it was > 64.4 µM and 174 µM and 334 µM; in experiment [4] it was above 1000 µM; in [5] it was above 1000 µM; in experiment [6], 250 µM and > 917 µM. Besides, the TGI in [7] was 250 µM and > 1000 µM; in experiment [8], above 1000 µM; in experiment [9], 250 µM and > 1000 µM; in experiment [10], above 1000 µM.

Turning to `CC1=C(C#N)C23C(=O)N(c4ccccc4)C(=O)C2=C(O)C=CC3(O)N1Cc1ccc(Cl)cc1Cl` (stereo not drawn), the GI50 in experiment [1] was 3.76 µM; in [2], 1.59 µM; in [3], 5.42 µM; in [4], 4.11 µM; in experiment [5] it was 2.86 µM; in experiment [6], 1.85 µM. Further, the GI50 in [7] was 5.88 µM; in experiment [8], 3.99 µM; in experiment [9], 1.32 µM; in [10], 1.89 µM. In addition, the TGI is 9.26 µM in experiment [1]; 2.94 µM in [2]; 19.6 µM in experiment [3]; 14.4 µM in [4]; 11.3 µM in experiment [5]; 4.49 µM in experiment [6]. Also, the TGI in [7] worked out at 19 µM; in [8], 14.5 µM; in experiment [9], 5.64 µM; in experiment [10], 4.68 µM.

As to `CCN1CCN(CCNc2nccc(-c3c(-c4ccc(F)c(O)c4)nc4occn34)n2)S1(=O)=O`, the GI50 was 3.67 µM in experiment [1]; 3.76 µM in [2]; 2.66 µM in experiment [3]; 4.6 µM in experiment [4]; 13.3 µM in experiment [5]; 7.46 µM in experiment [6]. Further, the GI50 is 3.93 µM in experiment [7], 9.44 µM in [8], 5.27 µM in experiment [9] and 3.03 µM in [10]. For the same compound, the TGI in experiment [1], in [2], in experiment [3], in experiment [4], in experiment [5] and in experiment [6] was above 100 µM each time. For the same compound, the TGI in experiment [7], in experiment [8], in experiment [9] and in experiment [10] was above 100 µM throughout.

With `Cn1ncc(Cl)c1-c1cc(C(=O)N[C@H](CN)Cc2cccc(F)c2)sc1Cl`, the GI50 in experiment [1] is 1.33 µM and 2.24 µM; in experiment [2], 1.08 µM and 2.85 µM; in [3] it was 0.844 µM and 1.51 µM; in experiment [4] it was 0.546 µM and 1.25 µM; in experiment [5], 0.346 µM and 0.742 µM; in experiment [6] it was 0.749 µM and 1.54 µM. The GI50 is 1.44 µM and 2.59 µM in experiment [7]; 0.0578 µM and 0.0899 µM in experiment [8]; 0.255 µM and 0.486 µM in experiment [9]; 1.31 µM and 2.36 µM in experiment [10]. The TGI in experiment [1] is 5.16 µM and 6.74 µM; in experiment [2], 2.91 µM and 11.3 µM; in experiment [3] it was > 7.4 µM and 12.5 µM; in experiment [4], 1.84 µM and 5.21 µM; in experiment [5], > 4.58 µM and 12.8 µM; in experiment [6], 3.11 µM and 4.74 µM. Also, the TGI in experiment [7] was > 10 µM and 16.2 µM; in experiment [8], 1.85 µM and 4.12 µM; in experiment [9] it was 2.95 µM and 7.01 µM; in [10], > 5.99 µM and 12.7 µM.

As to `O=C(c1c(F)c(F)c(F)c(F)c1F)c1c(F)c(F)c(F)c(F)c1F`, the TGI in experiment [1] is above 100 µM; in experiment [2], 2.19 µM; in [3], 2.64 µM; in [4] it was 3.28 µM; in experiment [5], 2.41 µM; in [6] it was 1.07 µM. In addition, the TGI in experiment [7] worked out at 3.83 µM; in experiment [8] it was 1.64 µM; in experiment [9], 6.44 µM; in experiment [10] it was 3.21 µM.
